# PubChem BioAssay AID2842 (Southern Research Institute, 2010)
# Tested on: M. tuberculosis H37Rv growth inhibition
# Experiment: Mycobacterium tuberculosis H37Rv growth inhibition, putative kinase inhibitor library, confirmatory dose response (AID 2842);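 also: bacteria incubated one week before Alamar blue readout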
row,SMILES,IC90
1,COc1ccc(-c2nnc(SCC(=O)Nc3cc(C)on3)o2)cc1,6.72 mg/L
2,COc1cccc(-c2nnc(NC(=O)C(C)C)o2)c1,32.7 mg/L
3,O=C(/C=C/c1ccccc1Cl)Nc1nnc(C2=COCCO2)o1,26.7 mg/L
4,Cc1cc(C)c2nc(NNC(=O)c3ccccc3F)sc2c1,3.08 mg/L
5,COc1ccc(-n2nnc3c(SCC(N)=O)ncnc32)cc1,5.67 mg/L
6,COC(=O)c1c(NC(=O)c2ccccc2Cl)sc2c1CC(C)(C)NC2(C)C,44.8 mg/L
7,CCN(C1CCCCC1)S(=O)(=O)c1ccc(C(=O)Nc2nnc(-c3ccc(F)cc3)o2)cc1,5.64 mg/L
8,Cc1ccc(-c2nnc(NC(=O)C3CC3)o2)c(C)c1,1.47 mg/L
9,Cc1ccc(C)c(-c2nnc(NC(=O)c3ccc(S(=O)(=O)N4CCc5ccccc54)cc3)o2)c1,12.4 mg/L
10,O=C(CSc1nnc2ccc(-c3cccc([N+](=O)[O-])c3)nn12)Nc1cccc(C(F)(F)F)c1,3.34 mg/L
11,COc1cc2c3nnc(-c4ccc(C)c(C)c4)c-3cn(Cc3ccc(C)cc3)c2cc1OC,1.55 mg/L
12,O=C1CN(C(=O)c2cc(Cl)ccc2Cl)C(c2ccccc2)c2cc(Cl)ccc2N1 (stereo not given),6.59 mg/L
13,COc1cccc(C(=O)Nc2nc(-c3cccs3)cs2)c1,19.5 mg/L
14,COc1ccc(CCNc2cnnc(NCCc3ccc(OC)cc3)n2)cc1,24.5 mg/L
15,CN(c1ccccc1)S(=O)(=O)c1ccc(C(=O)Nc2nnc(-c3ccco3)o2)cc1,8.33 mg/L
16,Cc1ccc2sc(N(CCCn3ccnc3)C(=O)c3cccs3)nc2c1C,0.54 mg/L
17,CC(C)(C)C(=O)Nc1nnc(-c2ccc3c(c2)CCCC3)o1,4.73 mg/L
18,CCCCc1ccc2nc(Nc3nc4ccc(S(C)(=O)=O)cc4s3)sc2c1,31.8 mg/L
19,CCc1ccc(-c2nnc3c4cc(OC)c(OC)cc4n(Cc4ccccc4F)cc2-3)cc1,8.11 mg/L
20,COc1ccccc1Cn1cc2c(-c3ccccc3)nnc-2c2cc(OC)c(OC)cc21,7.59 mg/L
21,Cc1ccc(-c2nnc(NC(=O)c3ccc4c(c3)CCCC4)o2)c(C)c1,36.9 mg/L
22,COc1cccc2sc(NNC(=O)c3cc(=O)c4ccccc4o3)nc12,25.5 mg/L
23,COc1cccc2sc(Nc3nnc(-c4ccccc4)o3)nc12,6.08 mg/L

row,SMILES,IC90
1,Cc1cc(Nc2ccc(C)c(Cl)c2)n2ncc(-c3ccccc3)c2n1,3.35 mg/L
2,COc1ccccc1-c1cnn2c(Nc3ccc(C)c(C)c3)cc(C)nc12,14.4 mg/L
3,COc1cccc2sc(N(CCCn3ccnc3)C(=O)c3ccc4c(c3)OCCO4)nc12,6.56 mg/L
4,CC1(C)Cc2c(sc(NC(=O)c3ccc(Cc4ccccc4)cc3)c2C(N)=O)C(C)(C)N1,10.4 mg/L
5,O=C(CSc1ncnc2c1oc1ccccc12)OCc1ccccc1,12.1 mg/L
6,CCc1ccc2nc(Nc3nc4ccc(S(C)(=O)=O)cc4s3)sc2c1,7.52 mg/L
7,Cc1ccc(C(=O)Nc2nnc(-c3ccc(C)cc3C)o2)cc1,33.5 mg/L
8,Cc1ccc(-c2nnc(NC(=O)c3ccccc3C)o2)c(C)c1,2.52 mg/L
9,O=C(CCc1ccccc1)Nc1nnc(-c2cccs2)o1,42.8 mg/L
10,COC(=O)c1c(NC(=O)c2ccc(C)c(C)c2)sc2c1CCN(C(C)=O)C2,48 mg/L
11,Cc1cccc2sc(NNC(=O)c3nc4ccccc4s3)nc12,3.36 mg/L
12,O=C(Nc1nnc(-c2cc(Cl)ccc2Cl)o1)c1ccc2c(c1)CCCC2,25.8 mg/L
13,CCN(CC)S(=O)(=O)c1ccc(C(=O)Nc2nnc(-c3cc(C)ccc3C)o2)cc1,13.1 mg/L
14,c1csc(Nc2nc3cc4c(cc3s2)OCO4)n1,8.57 mg/L
15,Cc1cccc(Cn2c(N3CCN(Cc4ccc(Cl)cc4)CC3)nc3c2c(=O)[nH]c(=O)n3C)c1,3.15 mg/L
16,CCOc1ccc(NC(=O)c2c(Cl)ccc(Cl)c2Cl)cc1,11.7 mg/L
17,Cc1cc(NC2CCCCC2)n2ncc(-c3ccccc3)c2n1,10.6 mg/L
18,Cc1ccc(C)c(-c2nnc(NC(=O)CCc3ccccc3)o2)c1,10.9 mg/L
19,Cc1ccccc1Nc1nc(-c2cccnc2)nc2ccccc12,7.35 mg/L
20,Cc1ccccc1C(=O)Nc1nnc(-c2ccc(Cl)cc2)o1,0.55 mg/L
21,COc1ccc2nc(Nc3nc(-c4ccccn4)cs3)sc2c1,< 0.2 mg/L
22,COc1ccc(O)c(/C=N/NC(=O)c2ccncc2)c1,0.82 mg/L
